ChEMBL document CHEMBL4673336, “Design, synthesis and stepwise optimization of nitrile-based inhibitors of cathepsins B and L” (Bioorg Med Chem, 2021)

Columns and labels:
[1] = target: T1, Cathepsin B (Homo sapiens, UniProt P07858); assay: Inhibition of human cathepsin B using Z-Phe-Arg-AMC fluorogenic peptide as substrate preincubated for 2 mins followed by substrate addition and measured for 5 mins by fluorescence assay
[2] = target: T2, Cathepsin K (Homo sapiens) (UniProt P43235); assay: Inhibition of recombinant human cathepsin K at 10 uM using Z-Leu-Arg-AMC as substrate measured after 20 mins relative to control
T2 sequence (whole entry): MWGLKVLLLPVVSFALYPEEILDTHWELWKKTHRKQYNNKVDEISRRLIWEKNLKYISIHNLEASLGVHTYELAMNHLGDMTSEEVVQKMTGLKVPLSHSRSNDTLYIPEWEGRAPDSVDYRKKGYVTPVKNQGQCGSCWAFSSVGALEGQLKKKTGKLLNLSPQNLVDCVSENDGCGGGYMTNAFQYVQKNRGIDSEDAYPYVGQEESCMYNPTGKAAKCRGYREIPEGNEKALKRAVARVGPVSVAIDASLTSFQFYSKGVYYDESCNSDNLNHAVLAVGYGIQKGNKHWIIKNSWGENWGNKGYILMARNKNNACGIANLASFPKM

[3] = target: T3, Procathepsin L (Homo sapiens, UniProt P07711); assay: Inhibition of human cathepsin L at 10 uM relative to control
Target sequence in this assay (P07711 114-333 limits assumed): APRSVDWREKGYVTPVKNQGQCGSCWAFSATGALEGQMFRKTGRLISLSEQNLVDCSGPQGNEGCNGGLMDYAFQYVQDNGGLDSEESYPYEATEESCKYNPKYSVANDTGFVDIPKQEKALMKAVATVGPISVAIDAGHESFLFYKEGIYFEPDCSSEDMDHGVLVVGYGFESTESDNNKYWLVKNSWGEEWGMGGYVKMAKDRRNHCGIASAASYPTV

[4] = target: T4, Cathepsin S (Homo sapiens, UniProt P25774); assay: Inhibition of human cathepsin S
Target sequence in this assay (P25774 whole entry): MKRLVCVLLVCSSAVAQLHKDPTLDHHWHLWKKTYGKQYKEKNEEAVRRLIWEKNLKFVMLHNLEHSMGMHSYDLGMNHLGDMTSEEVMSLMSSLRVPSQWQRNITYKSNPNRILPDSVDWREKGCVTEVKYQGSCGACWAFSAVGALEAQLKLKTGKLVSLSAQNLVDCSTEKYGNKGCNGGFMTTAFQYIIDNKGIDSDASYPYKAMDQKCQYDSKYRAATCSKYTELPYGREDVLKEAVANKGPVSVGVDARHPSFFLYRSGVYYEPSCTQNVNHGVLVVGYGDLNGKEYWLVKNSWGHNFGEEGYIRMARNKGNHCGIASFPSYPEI

[5] = target: T3, Procathepsin L; assay: Inhibition of human cathepsin L
Target sequence in this assay (P07711 whole entry): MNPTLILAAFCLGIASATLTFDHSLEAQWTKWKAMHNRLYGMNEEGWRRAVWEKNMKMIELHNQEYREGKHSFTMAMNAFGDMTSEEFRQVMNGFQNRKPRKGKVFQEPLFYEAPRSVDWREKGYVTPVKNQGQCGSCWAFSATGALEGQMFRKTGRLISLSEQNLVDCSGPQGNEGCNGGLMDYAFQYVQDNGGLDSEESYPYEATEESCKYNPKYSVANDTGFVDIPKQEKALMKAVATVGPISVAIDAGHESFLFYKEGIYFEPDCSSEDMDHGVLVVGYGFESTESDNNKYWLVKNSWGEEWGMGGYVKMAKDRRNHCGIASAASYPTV

[6] = target: T5, Cathepsin K (Homo sapiens, UniProt P43235); assay: Inhibition of recombinant human cathepsin K using Z-Leu-Arg-AMC as substrate measured after 20 mins
T5 sequence (P43235 whole entry): T2 sequence (whole entry)

[7] = target: T4, Cathepsin S; assay: Inhibition of human cathepsin S at 10 uM relative to control
Target sequence in this assay (P25774 115-331 limits assumed): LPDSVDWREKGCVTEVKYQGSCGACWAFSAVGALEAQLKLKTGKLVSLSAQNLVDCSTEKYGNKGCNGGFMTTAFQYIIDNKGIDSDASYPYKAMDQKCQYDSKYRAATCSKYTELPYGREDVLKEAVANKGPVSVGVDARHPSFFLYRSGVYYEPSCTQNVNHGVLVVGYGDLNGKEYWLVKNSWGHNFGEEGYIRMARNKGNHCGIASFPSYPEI

[8] = target: T1, Cathepsin B; assay: Inhibition of human cathepsin B at pH 6 using Z-Phe-Arg-AMC fluorogenic peptide as substrate preincubated for 2 mins followed by substrate addition and measured for 5 mins by fluorescence assay
[9] = target: T1, Cathepsin B; assay: Inhibition of human cathepsin B at pH 4.5 using Z-Phe-Arg-AMC fluorogenic peptide as substrate preincubated for 2 mins followed by substrate addition and measured for 5 mins by fluorescence assay
[10] = species on record: Homo sapiens; assay: Selectivity index, ratio of pKi for human cathepsin B using Z-Phe-Arg-AMC fluorogenic peptide as substrate preincubated for 2 mins followed by substrate addition and measured for 5 mins by fluorescence assay to pKi for human cathepsin L; conditions: time 7.0 min
[11] = species on record: Homo sapiens; assay: Selectivity index, ratio of pKi for human cathepsin S to pKi for human cathepsin L
[12] = target: T1, Cathepsin B; assay: Inhibition of human cathepsin B at 10 uM using Z-Phe-Arg-AMC fluorogenic peptide as substrate preincubated for 2 mins followed by substrate addition and measured for 5 mins by fluorescence assay relative to control; conditions: time 7.0 min
[13] = target: Cathepsin (S and K) (Homo sapiens) (UniProt P25774+P43235); assay: Selectivity index, ratio of pKi for human cathepsin S to pKi for recombinant human cathepsin K using Z-Leu-Arg-AMC as substrate measured after 20 mins; format: protein assay
[14] = species on record: Homo sapiens; assay: Selectivity index, ratio of pKi for human cathepsin S to pKi for human cathepsin B using Z-Phe-Arg-AMC fluorogenic peptide as substrate preincubated for 2 mins followed by substrate addition and measured for 5 mins by fluorescence assay; conditions: time 7.0 min

Sequence of Cathepsin (S and K) (Homo sapiens) (P25774 whole entry, looked up, one chain of several): as the sequence (P25774 whole entry) above

`C[C@@H](OCc1ccccc1)[C@@H](C#N)NC(=O)[C@H](Cc1ccc(Br)cc1)NC(=O)c1ccc(-c2ccccc2)cc1` gave a Ki [1] of 158 nM, an inhibition [2] of 51% and an inhibition [3] of over 90%. For the same molecule, the Ki [4] was over 10000 nM, the Ki [5] was over 10000 nM and the Ki [6] was over 10000 nM. It also gave an inhibition [7] of 86%.
Work on `C[C@@H](OCc1ccccc1)[C@@H](C#N)NC(=O)[C@H](Cc1cccc(Br)c1)NC(=O)c1ccc(-c2ccccc2)cc1` yielded a Ki [1] of 50.1 nM, an IC50 [8] of 92.6 nM and an inhibition [2] of over 90%. The inhibition [3] was 55%, the Ki [4] was 501 nM and the Ki [5] was over 10000 nM. It also gave a Ki [6] of over 10000 nM and an IC50 [9] of 39.4 nM.
Molecule `C[C@@H](OCc1ccccc1)[C@@H](C#N)NC(=O)[C@H](Cc1cccc(Cl)c1)NC(=O)c1ccc(Br)cc1` has a Ki [1] of 12.6 nM, a Ki [4] of 126 nM and a Ki [5] of 7.94 nM. It also gave a Ki [6] of 5010 nM.
Molecule `C[C@@H](OCc1ccccc1)[C@@H](C#N)NC(=O)[C@H](Cc1cccc(Cl)c1)NS(=O)(=O)c1cccc(Br)c1` has a Ki [1] of 39.8 nM, a Ki [4] of 79.4 nM and a Ki [5] of 0.251 nM. For the same molecule, the Ki [6] was 631 nM.
In the case of `C[C@@H](OCc1ccccc1)[C@@H](C#N)NC(=O)[C@H](Cc1cccc(Cl)c1)NC(=O)c1cccc(Br)c1`, the Ki [1] is reported as 63.1 nM, the Ki [4] is reported as 15.8 nM and the Ki [5] is reported as 0.631 nM. The Ki [6] was 3980 nM.
`C[C@@H](OCc1ccccc1)[C@@H](C#N)NC(=O)[C@H](Cc1c[nH]c2ccccc12)NC(=O)c1ccc(-c2ccccc2)cc1` gave a Ki [1] of 50.1 nM, an inhibition [2] of 70% and a Ratio pKi [10] of 12. For the same molecule, the Ki [4] was 158 nM, the Ki [5] was 794 nM and the Ki [6] was over 10000 nM.
In the case of `C[C@@H](OCc1ccccc1)[C@@H](C#N)NC(=O)[C@H](Cc1cccc(Cl)c1)NC(=O)c1cccc(-c2ccccc2)c1`, the Ki [1] is reported as 126 nM, the Ki [4] is reported as 50.1 nM and the Ki [5] is reported as 50.1 nM. It also gave a Ki [6] of over 10000 nM.
In the case of `C[C@@H](OCc1ccccc1)[C@@H](C#N)NC(=O)[C@H](Cc1cccc(Br)c1)NC(=O)c1cc(C(C)(C)C)nn1C`, the Ki [1] is reported as 158 nM, the Ki [4] is reported as 158 nM and the Ki [5] is reported as 0.501 nM. For the same molecule, the Ki [6] was 2510 nM.
`C[C@@H](OCc1ccccc1)[C@@H](C#N)NC(=O)[C@H](Cc1cccc(Cl)c1)NS(=O)(=O)c1cccc(-c2ccccc2)c1` gave a Ki [1] of 25.1 nM, a Ki [4] of 631 nM and a Ki [5] of 200 nM. The Ki [6] was over 10000 nM.
With `C[C@@H](OCc1ccccc1)[C@@H](C#N)NC(=O)[C@H](Cc1cccc(Br)c1)NC(=O)Cc1ccc(-c2ccccc2)cc1` the Ki [1] was over 10000 nM, the Ratio pKi [11] was over 50 and the inhibition [2] was over 90%. For the same molecule, the inhibition [12] was over 90%, the inhibition [3] was 59% and the Ki [4] was 501 nM. It also gave a Ki [5] of over 10000 nM, a Ki [6] of over 10000 nM and a Ratio pKi [13] of over 50. For the same molecule, the Ratio pKi [14] was over 50.
`C[C@@H](OCc1ccccc1)[C@@H](C#N)NC(=O)[C@H](Cc1cccc(Br)c1)NC(=O)c1ccc(-c2cccnc2)cc1` gave a Ki [1] of 12.6 nM, an inhibition [2] of 84% and a Ki [4] of 39.8 nM. The Ki [5] was 20 nM and the Ki [6] was over 10000 nM.
`C[C@@H](OCc1ccccc1)[C@@H](C#N)NC(=O)[C@H](Cc1cccc(Cl)c1)NC(=O)c1cccc(-c2cncnc2)c1` gave a Ki [1] of 63.1 nM, an inhibition [2] of 82% and a Ki [4] of 15.8 nM. The Ki [5] was 20 nM and the Ki [6] was over 10000 nM.
With `C[C@@H](OCc1ccccc1)[C@@H](C#N)NC(=O)[C@H](Cc1cccc(Br)c1)NC(=O)c1ccc(-c2cncnc2)cc1` the Ki [1] was 12.6 nM, the Ki [4] was 31.6 nM and the Ki [5] was 20 nM. For the same molecule, the Ki [6] was 5010 nM.
`C[C@@H](OCc1ccccc1)[C@@H](C#N)NC(=O)[C@H](Cc1cccc(Br)c1)NC(=O)c1cccc(-c2cccnc2)c1` showed a Ki [1] of 31.6 nM, a Ki [4] of 20 nM and a Ki [5] of 20 nM. It also gave a Ki [6] of over 10000 nM.
`C[C@@H](OCc1ccccc1)[C@@H](C#N)NC(=O)[C@H](Cc1cccc(Cl)c1)NC(=O)c1ccc(-c2cncnc2)cc1` was tested, and the Ki [1] was 12.6 nM, the Ki [4] was 63.1 nM and the Ki [5] was 15.8 nM. The Ki [6] was 6310 nM.
Work on `C[C@@H](OCc1ccccc1)[C@@H](C#N)NC(=O)[C@H](Cc1cccc(Cl)c1)NS(=O)(=O)c1ccc(-c2ccccc2)cc1` yielded a Ki [1] of 200 nM, a Ki [4] of 501 nM and a Ki [5] of 158 nM. It also gave a Ki [6] of 10000 nM.
For `C[C@@H](OCc1ccccc1)[C@@H](C#N)NC(=O)[C@H](Cc1cccc(Cl)c1)NC(=O)c1cccc(-c2cccnc2)c1`, the Ki [1] was 5.01 nM, the IC50 [8] was 9.01 nM and the Ki [4] was 12.6 nM. It also gave a Ki [5] of 1 nM, a Ki [6] of over 10000 nM and an IC50 [9] of 33.1 nM.
`C[C@@H](OCc1ccccc1)[C@@H](C#N)NC(=O)[C@H](Cc1cccc(Cl)c1)NC(=O)c1ccc(-c2ccccc2)cc1` showed a Ki [1] of 31.6 nM, an IC50 [8] of 57.8 nM and an inhibition [3] of 61%. It also gave a Ki [4] of 79.4 nM, a Ki [5] of over 10000 nM and a Ki [6] of 1580 nM. For the same molecule, the IC50 [9] was 42.3 nM.
